Measured values published in patent publication US20160280688A1, “SUBSTITUTED PHENYLALANINE DERIVATIVES” (BAYER PHARMA AKTIENGESELLSCHAFT, priority 2013, published 2016).
Where a name gives a salt, the structure may show the parent alone.

Key:
Type in all cases: biochemical
[1] = test system: human and animal plasma; assay: Determination of the anticoagulatory activity: activated partial thromboplastin time (aPTT) in plasma; conditions: in vitro in plasma, C.K. Prest kit, 3 min at 37° C.
Description: The anticoagulatory activity of the test substances is determined in vitro in human and animal plasma (for example mouse, rat, rabbit, pig and dog plasma). To this end, blood is drawn off in a mixing ratio of sodium citrate/blood of 1:9 using a 0.11 molar sodium citrate solution as receiver. Immediately after the blood has been drawn off, it is mixed thoroughly and centrifuged at about 4000 g for 15 minutes. The supernatant is pipetted off.
The activated partial thromboplastin time (aPTT) is determined in the presence of varying concentrations of test substance or the corresponding solvent using a commercial test kit (C.K. Prest from Diagnostica Stago). The test compounds are incubated with the plasma and the PTT reagent (cephalin, kaolin) at 37° C. for 3 minutes. Coagulation is then started by addition of a 25 mM aqueous calcium chloride solution, and the time when coagulation occurs is determined. The concentration of test substance which brings about a 1.5-fold extension of the aPTT is determined Activity data from this test are listed in Table B below: […]

[2] = biological target: T1, human plasmin (Homo sapiens, UniProt P00747); assay: Measurement of plasmin inhibition (fluorogenic peptide substrate MeOSuc-Ala-Phe-Lys-AMC); conditions: plasmin from Kordia, 15 min preincubation, 30 min at 22° C., fluorescence
T1 construct: purchased Kordia
Description: (§1) The plasmin inhibition of the inventive substances is determined using a biochemical test system which utilizes the reaction of a peptidic plasmin substrate to determine the enzymatic activity of human plasmin. Here, plasmin cleaves from the peptic plasmin substrate the C-terminal aminomethylcoumarin (AMC), the fluorescence of which is measured. The determinations are carried out in microtitre plates.
(§2) Test substances are dissolved in dimethyl sulphoxide and serially diluted in dimethyl sulphoxide (3000 μM to 0.0078 μM; resulting final concentrations in the test: 50 μM to 0.00013 μM). In each case 1 μl of the diluted substance solutions are placed into the wells of white microtitre plates from Greiner (384 wells). Subsequently, the following are added successively: 20 μl of assay buffer (50 mmol/l Tris buffer pH 7.4; 100 mmol/l sodium chloride; 5 mmol/l calcium chloride; 0.1% bovine serum albumin) and 20 μl of plasmin from Kordia (0.3 μg/ml in assay buffer). After 15 min of incubation, the enzyme reaction is started by addition of 20 μl of the plasmin substrate MeOSuc-Ala-Phe-Lys-AMC dissolved in assay buffer (150 μM in assay buffer) from Bachem, the mixture is incubated at room temperature (22° C.) for 30 min and fluorescence is then measured (excitation: 360 nm, emission: 460 nm). The measured emissions of the test batches with test substance are compared to those of control batches without test substance (only dimethyl sulphoxide instead of test substance in dimethyl sulphoxide), and ICso values are calculated from the concentration/activity relationships.

[3] = biological target: T2, human factor XIa (Homo sapiens, UniProt P03951); assay: Measurement of FXIa inhibition (fluorogenic peptide substrate Boc-Glu(OBzl)-Ala-Arg-AMC); conditions: factor XIa from Kordia, 15 min preincubation, 30 min at 22° C., fluorescence
T2 construct: purchased Kordia
Description: as §1, with “To determine the factor XIa” for “The plasmin”, “the” for “the inventive”, “according to the invention,” for “is determined using”, “system is used” for “system”, “factor XIa” for “plasmin”, “factor XIa.” for “plasmin.”
as §2, with “factor XIa” for “plasmin”, “(0.45 nM” for “(0.3 μg/ml”, “Boc-Glu(OBzl)-Ala-Arg-AMC” for “MeOSuc-Ala-Phe-Lys-AMC”, “(10” for “(150”, “IC50” for “ICso”

T1 sequence (P00747 581-810 limits assumed): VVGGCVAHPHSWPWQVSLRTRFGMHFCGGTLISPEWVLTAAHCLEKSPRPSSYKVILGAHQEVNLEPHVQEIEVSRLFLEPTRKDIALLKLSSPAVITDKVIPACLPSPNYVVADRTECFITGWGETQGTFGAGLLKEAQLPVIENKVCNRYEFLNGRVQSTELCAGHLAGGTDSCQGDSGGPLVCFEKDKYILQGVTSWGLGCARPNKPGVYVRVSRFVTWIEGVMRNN
T1 sequence (P00747 97-580 partner limits assumed): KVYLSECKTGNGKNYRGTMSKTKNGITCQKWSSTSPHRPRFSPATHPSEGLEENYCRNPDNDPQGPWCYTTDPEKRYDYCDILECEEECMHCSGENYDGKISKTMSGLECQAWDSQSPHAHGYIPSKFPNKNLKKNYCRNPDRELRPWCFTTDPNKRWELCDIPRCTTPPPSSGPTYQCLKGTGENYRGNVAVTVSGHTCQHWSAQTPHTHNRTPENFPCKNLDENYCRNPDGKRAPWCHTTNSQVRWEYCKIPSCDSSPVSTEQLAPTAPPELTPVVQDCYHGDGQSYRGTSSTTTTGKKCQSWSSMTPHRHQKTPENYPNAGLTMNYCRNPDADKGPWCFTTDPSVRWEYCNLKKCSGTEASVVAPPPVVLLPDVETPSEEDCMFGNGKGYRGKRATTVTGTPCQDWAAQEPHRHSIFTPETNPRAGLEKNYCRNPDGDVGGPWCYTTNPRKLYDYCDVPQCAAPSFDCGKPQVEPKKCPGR
T2 sequence (P03951 388-625 limits assumed): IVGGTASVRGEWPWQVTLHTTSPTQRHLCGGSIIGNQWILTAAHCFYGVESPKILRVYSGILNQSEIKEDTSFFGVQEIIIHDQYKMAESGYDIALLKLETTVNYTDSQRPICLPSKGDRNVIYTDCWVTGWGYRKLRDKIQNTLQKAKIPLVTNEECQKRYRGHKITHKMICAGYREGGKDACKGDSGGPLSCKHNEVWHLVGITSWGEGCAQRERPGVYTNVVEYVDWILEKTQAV
T2 sequence (P03951 19-387 partner limits assumed): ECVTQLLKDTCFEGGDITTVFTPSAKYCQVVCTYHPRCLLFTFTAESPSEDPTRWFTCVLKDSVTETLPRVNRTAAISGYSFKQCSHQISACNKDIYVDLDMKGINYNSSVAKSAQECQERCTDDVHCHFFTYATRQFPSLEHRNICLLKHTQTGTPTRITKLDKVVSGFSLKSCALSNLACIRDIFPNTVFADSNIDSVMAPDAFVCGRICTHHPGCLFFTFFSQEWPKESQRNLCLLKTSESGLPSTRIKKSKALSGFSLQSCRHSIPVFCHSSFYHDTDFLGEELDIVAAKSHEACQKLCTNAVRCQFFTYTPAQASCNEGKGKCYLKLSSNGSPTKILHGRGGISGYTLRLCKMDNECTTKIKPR

In the case of `Cc1cc2oc(C3CC3)nc2cc1-c1ccc(C[C@H](NC(=O)[C@H]2CC[C@H](CN)CC2)C(=O)Nc2ccc(-c3nnn[nH]3)cc2)cc1.Cl` (relative stereo) [Example 26, N-alpha-{[trans-4-(Aminomethyl)cyclohexyl]carbonyl}-4-(2-cyclopropyl-6-methyl-1,3-benzoxazol-5-yl)-N-[4-(1H-tetrazol-5-yl)phenyl]-L-phenylalaninamide hydrochloride], the “aPTT (concentration of test substance which brings about a 1.5-fold extension of the aPTT)” value [1] is reported as 0.18 µmol/L, the IC50 [2] is reported as 2.7 nM and the IC50 [3] is reported as 1.4 nM.
`Cc1cc2[nH]c(C(C)C)nc2cc1-c1ccc(C[C@@H](NC(=O)C2CCC(CN)CC2)C(=O)Nc2ccc3[nH]c(=O)[nH]c3c2)cc1` (single isomer, unassigned; enantiomer 1) [Example 38, N-alpha-{[trans-4-(Aminomethyl)cyclohexyl]carbonyl}-4-(2-isopropyl-6-methyl-1H-benzimidazol-5-yl)-N-(2-oxo-2,3-dihydro-1H-benzimidazol-5-yl)-D-phenylalaninamide hydrochloride (Enantiomer 1)] showed an IC50 [2] of 20 nM and an IC50 [3] of 37 nM.
In the case of `Cc1cc2[nH]c(C(C)C)nc2cc1-c1ccc(C[C@H](NC(=O)C2CCC(CN)CC2)C(=O)Nc2ccc3[nH]c(=O)[nH]c3c2)cc1` (single isomer, unassigned; enantiomer 2) [Example 39, N-alpha-{[trans-4-(Aminomethyl)cyclohexyl]carbonyl}-4-(2-isopropyl-6-methyl-1H-benzimidazol-5-yl)-N-(2-oxo-2,3-dihydro-1H-benzimidazol-5-yl)-L-phenylalaninamide hydrochloride (Enantiomer 2)], the IC50 [2] is reported as 0.64 nM and the IC50 [3] is reported as 1.1 nM.
For `Cc1cc2nc[nH]c2cc1-c1ccc(C[C@H](NC(=O)C2CCC(CN)CC2)C(=O)Nc2ccc(-c3nn[nH]n3)cc2)cc1` (stereo partly drawn) [Example 1, N-alpha-{[trans-4-(Aminomethyl)cyclohexyl]carbonyl}-4-(5-methyl-1H-benzimidazol-6-yl)-N-[4-(2H-tetrazol-5-yl)phenyl]-L-phenylalaninamide hydrochloride], the “aPTT (concentration of test substance which brings about a 1.5-fold extension of the aPTT)” value [1] was 0.07 µmol/L, the IC50 [2] was 22 nM and the IC50 [3] was 0.9 nM.
For `Cc1cc2nc[nH]c2cc1-c1ccc(C[C@H](NC(=O)[C@H]2CC[C@H](CN)CC2)C(=O)Nc2ccc3c(=O)[nH][nH]c3c2)cc1` [Example 8, N-alpha-{[trans-4-(Aminomethyl)cyclohexyl]carbonyl}-4-(5-methyl-1H-benzimidazol-6-yl)-N-(3-oxo-2,3-dihydro-1H-indazol-6-yl)-L-phenylalaninamide hydrochloride], the IC50 [2] was 21 nM and the IC50 [3] was 6 nM.
In the case of `NC[C@H]1CC[C@H](C(=O)N[C@@H](Cc2ccc(-c3ccc4c(c3)NC(=O)CC4)cc2)C(=O)Nc2ccc(-c3nn[nH]n3)cc2)CC1` [Example 9, N-alpha-{[trans-4-(Aminomethyl)cyclohexyl]carbonyl}-4-(2-oxo-1,2,3,4-tetrahydroquinolin-7-yl)-N-[4-(2H-tetrazol-5-yl)phenyl]-L-phenylalaninamide hydrochloride], the IC50 [2] is reported as 25 nM and the IC50 [3] is reported as 3.7 nM.
In the case of `NC[C@H]1CC[C@H](C(=O)N[C@@H](Cc2ccc(-c3ccc4c(c3)NC(=O)CC4)cc2)C(=O)Nc2ccc(-c3nn[nH]n3)c(F)c2)CC1` [Example 12, N-alpha-{[trans-4-(Aminomethyl)cyclohexyl]carbonyl}-N-[3-fluoro-4-(2H-tetrazol-5-yl)phenyl]-4-(2-oxo-1,2,3,4-tetrahydroquinolin-7-yl)-L-phenylalaninamide hydrochloride], the IC50 [2] is reported as 5.9 nM and the IC50 [3] is reported as 2.4 nM.
Compound `Cc1cc2[nH]c(C(C)C)nc2cc1-c1ccc(C[C@H](NC(=O)[C@H]2CC[C@H](CN)CC2)C(=O)Nc2ccc3[nH]c(=O)[nH]c3c2)cc1` [Example 19, N-alpha-{[trans-4-(Aminomethyl)cyclohexyl]carbonyl}-4-(2-isopropyl-6-methyl-1H-benzimidazol-5-yl)-N-(2-oxo-2,3-dihydro-1H-benzimidazol-5-yl)-L-phenylalaninamide] has an IC50 [2] of 1.3 nM and an IC50 [3] of 3.1 nM.
In the case of `Cc1cc2[nH]c(C3CC3)nc2cc1-c1ccc(C[C@H](NC(=O)[C@H]2CC[C@H](CN)CC2)C(=O)Nc2cc(Cl)c3[nH]c(=O)[nH]c3c2)cc1` [Example 20, N-alpha-{[trans-4-(Aminomethyl)cyclohexyl]carbonyl}-N-(7-chloro-2-oxo-2,3-dihydro-1H-benzimidazol-5-yl)-4-(2-cyclopropyl-6-methyl-1H-benzimidazol-5-yl)-L-phenylalaninamide], the “aPTT (concentration of test substance which brings about a 1.5-fold extension of the aPTT)” value [1] is reported as 0.26 µmol/L, the IC50 [2] is reported as 0.4 nM and the IC50 [3] is reported as 0.9 nM.
`Cc1nc2[nH]c(C3CC3)nc2cc1-c1ccc(C[C@H](NC(=O)[C@H]2CC[C@H](CN)CC2)C(=O)Nc2ccc3[nH]c(=O)[nH]c3c2)cc1` [Example 21, N-alpha-{[trans-4-(Aminomethyl)cyclohexyl]carbonyl}-4-(2-cyclopropyl-5-methyl-1H-imidazo[4,5-b]pyridin-6-yl)-N-(2-oxo-2,3-dihydro-1H-benzimidazol-5-yl)-L-phenylalaninamide] was tested, and the “aPTT (concentration of test substance which brings about a 1.5-fold extension of the aPTT)” value [1] was 0.3 µmol/L, the IC50 [2] was 0.4 nM and the IC50 [3] was 0.7 nM.
In the case of `Cc1cc2[nH]c(C3CC3)nc2cc1-c1ccc(C[C@H](NC(=O)[C@H]2CC[C@H](CN)CC2)C(=O)Nc2cc(F)c3c(=O)[nH][nH]c3c2)cc1` [Example 22, N-alpha-{[trans-4-(Aminomethyl)cyclohexyl]carbonyl}-4-(2-cyclopropyl-6-methyl-1H-benzimidazol-5-yl)-N-(4-fluoro-3-oxo-2,3-dihydro-1H-indazol-6-yl)-L-phenylalaninamide hydrochloride], the “aPTT (concentration of test substance which brings about a 1.5-fold extension of the aPTT)” value [1] is reported as 0.18 µmol/L, the IC50 [2] is reported as 0.6 nM and the IC50 [3] is reported as 0.5 nM.
With `NC[C@H]1CC[C@H](C(=O)N[C@@H](Cc2ccc(-c3cc4nc(C5CC5)[nH]c4cc3Cl)cc2)C(=O)Nc2ccc3[nH]c(=O)[nH]c3c2)CC1` [Example 23, N-alpha-{[trans-4-(Aminomethyl)cyclohexyl]carbonyl}-4-(6-chloro-2-cyclopropyl-1H-benzimidazol-5-yl)-N-(2-oxo-2,3-dihydro-1H-benzimidazol-5-yl)-L-phenylalaninamide hydrochloride] the “aPTT (concentration of test substance which brings about a 1.5-fold extension of the aPTT)” value [1] was 0.27 µmol/L, the IC50 [2] was 0.95 nM and the IC50 [3] was 2.3 nM.
`Cc1cc2nc(C(C)C)[nH]c2cc1-c1ccc(C[C@H](NC(=O)[C@H]2CC[C@H](CN)CC2)C(=O)Nc2ccc(-c3nnc(C(F)(F)C(F)(F)C(=O)O)[nH]3)cc2)cc1` [Example 24, 3-[5-(4-{[N-{[trans-4-(Aminomethyl)cyclohexyl]carbonyl}-4-(2-isopropyl-6-methyl-1H-benzimidazol-5-yl)-L-phenylalanyl]amino}phenyl)-4H-1,2,4-triazol-3-yl]-2,2,3,3-tetrafluoropropanoic acid hydrochloride] was tested, and the IC50 [2] was 1.4 nM and the IC50 [3] was 0.5 nM.
With `Cc1cc2[nH]c(C(C)C)nc2cc1-c1ccc(C[C@H](NC(=O)[C@H]2CC[C@H](CN)CC2)C(=O)Nc2ccc3nc(C(F)(F)C(F)(F)F)[nH]c3c2)cc1` [Example 25, N-alpha-{[trans-4-(Aminomethyl)cyclohexyl]carbonyl}-4-(2-isopropyl-6-methyl-1H-benzimidazol-5-yl)-N-[2-(pentafluoroethyl)-1H-benzimidazol-6-yl]-L-phenylalaninamide hydrochloride] the “aPTT (concentration of test substance which brings about a 1.5-fold extension of the aPTT)” value [1] was 0.96 µmol/L, the IC50 [2] was 1.7 nM and the IC50 [3] was 13 nM.
